Data on 4 molecules can be found in patent US10047084B2, “Imidazolone derivatives, pharmaceutical compositions and uses thereof” (BEIJING FORELANDPHARMA CO. LTD., priority 2013, dated 2018).

The subject of one data set is SK-BR3/BT474. The data set is described as follows: CTG cell survival assay, SK-BR3/BT474. It counts as cell-based. Conditions: SK-BR3/BT474 cells. In a few lines: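 Cells were exposed to compounds in a 3-fold dilution series, with a top final concentration of 10 uM in 0.1% DMSO. Viable cells were quantified by CellTiter-Glo ATP luminescence.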
A short description of data set [1]: Pharmacokinetics after oral administration, Balb/c mice. It is filed as in vivo. The following applies: mouse, plasma, 10 mg/kg. The protocol:
(§1) 4. […] Blood was sampled before the administration and at 0.25 h, 0.5 h, 1 h, 2 h, 4 h, 6 h, 8 h, and 24 h after the administration.

The nature of data set [2]: Solubility test in common aqueous vehicles. It counts as physicochemical. The following applies: 25° C., pH = 3.
Data set [3] in a line: Pharmacokinetics after oral administration, SD rat. The following applies: plasma, 10 mg/kg. It is filed as in vivo. Here is the method:
as §1

In the case of `Cn1cc(-c2ccc(-c3ccc4ncc5c(c4c3)n(C3CCCN(S(C)(=O)=O)C3)c(=O)n5C)cn2)cn1` (stereo not shown) [Example 3, 3-methyl-8-(6-(1-methyl-1H-pyrazol-4-yl)pyridin-3-yl)-1-(1-(methanesulfonyl)piperidin-3-yl)-1H-imidazo[4,5-c]quinolin-2(3H)-one], in the data set on SK-BR3/BT474, the EC50 is under 100 nM.

In data set [1], `Cn1cc(-c2ccc(-c3ccc4ncc5c(c4c3)n([C@H]3CC[C@@H](O)CC3)c(=O)n5C)cn2)cn1` [Example 18, 1-((1s,4s)-4-hydroxycyclohexyl)-3-methyl-8-(6-(1-methyl-1H-pyrazol-4-yl)pyridin-3-yl)-1H-imidazo[4,5-c]quinolin-2(3H)-one] came in with an AUC of 10000 to 100000 ng·h/mL, a Cmax of 5000 to 10000 ng/mL and a half-life of 1 to 4 h. Further, the concentration at 6 h in data set [1] (6 h) lay in the range of 1 to 10 µM. Moreover, in the data set on SK-BR3/BT474, the EC50 is under 50 nM. For the same molecule, the solubility in data set [2] (aqueous buffer, water) was over 5000 µg/mL.

Consider `Cn1cc(-c2ccc(-c3ccc4ncc5c(c4c3)n([C@H]3CCN(S(C)(=O)=O)C3)c(=O)n5C)cn2)cn1` [Example 28, (S)-3-methyl-8-(6-(1-methyl-1H-pyrazol-4-yl)pyridin-3-yl)-1-(1-(methanesulfonyl)pyrrolidin-3-yl)-1H-imidazo[4,5-c]quinolin-2(3H)-one], for which, in data set [3], the AUC lay within 10000 to 100000 ng·h/mL, the Cmax is 800 to 4000 ng/mL, the half-life was 4 to 10 h and the concentration at 6 h lay in the range of 1 to 10 µM. In addition, the EC50 with SK-BR3/BT474 is under 50 nM. Moreover, the solubility in data set [2] (aqueous with cosolvent or surfactant or cyclodextrin, 30% sulfobutyl-β-cyclodextrin) is over 3000 µg/mL.

As for `Cn1cc(-c2ccc(-c3ccc4ncc5c(c4c3)n([C@@H]3CCCN(S(C)(=O)=O)C3)c(=O)n5C)cn2)cn1` [Example 31, (R)-3-methyl-8-(6-(1-methyl-1H-pyrazol-4-yl)pyridin-3-yl)-1-(1-(methanesulfonyl)piperidin-3-yl)-1H-imidazo[4,5-c]quinolin-2(3H)-one], in data set [3], the AUC was in the range of 10000 to 100000 ng·h/mL, the Cmax was 800 to 4000 ng/mL, the half-life lay in the range of 4 to 10 h and the concentration at 6 h lay in the range of 1 to 10 µM. Further, the EC50 in the data set on SK-BR3/BT474 was under 100 nM. This molecule showed a solubility in data set [2] (aqueous buffer, water) of over 5000 µg/mL.
